“Also recorded” adds a separate entry of the source.
Assays:
[1] = target: T1, ligated RORγt (covalent orthosteric probe at Cys320) (Homo sapiens, UniProt P51449); assay type: biochemical
T1 sequence (P51449 265-518): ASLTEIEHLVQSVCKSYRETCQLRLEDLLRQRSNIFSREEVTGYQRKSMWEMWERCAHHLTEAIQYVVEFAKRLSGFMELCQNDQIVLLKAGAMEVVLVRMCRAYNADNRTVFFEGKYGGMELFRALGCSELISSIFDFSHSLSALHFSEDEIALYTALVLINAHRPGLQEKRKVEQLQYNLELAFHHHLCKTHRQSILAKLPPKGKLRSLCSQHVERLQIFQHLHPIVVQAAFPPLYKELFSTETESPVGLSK

RORγt Cys320Ala mutant = target: T2, RORγt Cys320Ala mutant (Homo sapiens, UniProt P51449, C320A); assay: Ligation to RORγt Cys320Ala mutant, Q-TOF MS; assay type: binding
T2 sequence (P51449 265-507 C320A): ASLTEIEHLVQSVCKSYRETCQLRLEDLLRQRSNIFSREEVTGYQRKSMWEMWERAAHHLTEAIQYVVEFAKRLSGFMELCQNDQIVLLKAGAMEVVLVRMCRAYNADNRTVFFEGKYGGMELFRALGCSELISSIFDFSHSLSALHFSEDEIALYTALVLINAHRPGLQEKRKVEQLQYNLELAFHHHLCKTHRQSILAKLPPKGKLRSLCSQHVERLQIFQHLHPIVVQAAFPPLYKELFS

RORγt LBD = target: T3, RORγt LBD (Homo sapiens, UniProt P51449); assay: TR-FRET coactivator recruitment assay, dose-response of covalent probes; assay type: biochemical; settings: TR-FRET dose-response curve plateau
T3 sequence (P51449 265-518): T1 sequence (P51449 265-518)

PPARγ = target: T4, PPARγ (Homo sapiens, UniProt P37231); assay: Ligation; assay type: binding
T4 sequence (P37231 1-505): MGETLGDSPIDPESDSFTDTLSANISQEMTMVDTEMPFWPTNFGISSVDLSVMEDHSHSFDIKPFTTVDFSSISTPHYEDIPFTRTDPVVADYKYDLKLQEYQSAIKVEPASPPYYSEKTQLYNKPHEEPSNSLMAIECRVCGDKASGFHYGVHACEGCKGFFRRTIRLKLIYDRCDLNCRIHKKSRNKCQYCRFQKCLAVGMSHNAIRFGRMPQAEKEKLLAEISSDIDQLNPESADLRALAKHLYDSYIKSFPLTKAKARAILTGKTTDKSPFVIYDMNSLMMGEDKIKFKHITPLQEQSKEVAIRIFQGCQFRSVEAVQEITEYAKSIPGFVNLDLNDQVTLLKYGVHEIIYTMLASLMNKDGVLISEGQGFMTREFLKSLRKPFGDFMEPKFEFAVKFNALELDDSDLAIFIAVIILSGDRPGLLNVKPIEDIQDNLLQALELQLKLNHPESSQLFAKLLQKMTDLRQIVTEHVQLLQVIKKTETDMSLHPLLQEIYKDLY

Row | Structure (SMILES) | occlusion of the orthosteric site by the ligated probe [1] | Profile (full/partial inverse agonistic character) (RORγt LBD) | other results
1 | O=C(Nc1ccccc1)c1cc([N+](=O)[O-])ccc1Cl [Compound 1] | occlusion of the orthosteric binding site | – | Ligation to RORγt Cys320Ala mutant (RORγt Cys320Ala mutant): No ligation; Profile (full/partial inverse agonistic character) (RORγt LBD; listed as 1 GW9662): Full inv. ago.; Profile (full/partial inverse agonistic character) (RORγt LBD; listed as GW9662): full inverse agonist
2 | CNC(=O)c1cc([N+](=O)[O-])ccc1Cl [Compound 2] | – | – | Ligation to PPARγ (PPARγ): fully ligate
3 | Cc1ccccc1NC(=O)c1cc([N+](=O)[O-])ccc1Cl [Compound 9] | Clear occlusion of the orthosteric site | partial inverse agonistic behavior; also recorded: Partial inv. ago | –
4 | O=C(Nc1ccsc1)c1cc([N+](=O)[O-])ccc1Cl [Compound 11] | – | full inverse agonistic behavior; also recorded: Full inv. ago | –
